From patent US11358939B2, “1,4-benzodiazepin-2-one derivatives and use thereof” (priority 2017, dated 2022)

Experiments:
Type in all cases: in vivo
[1] = test system: writhes induced by intraperitoneal acetic acid; test: Analgesic activity, acetic acid-induced writhing test (peripheral pain model); details: for Writhing inhibition, % of control in 1 mg/kg dose: 1 mg/kg intraperitoneally, 40 min before 0.75% acetic acid; for ED50, analgesic activity in writhing test / ED50: intraperitoneal, Prozorovsky method; for ED50: ip
Experimental: Assessment of analgesic activity was performed in a model of peripheral pain based on chemical pain induced by intraperitoneal administration of acetic acid, leading to involuntary contractions of abdominal muscles, termed “writhes”, accompanied by hind leg extension and spine arching. The writhes were induced by 0.75% solution of acetic acid, which was administered intraperitoneally 40 min after intraperitoneal administration of test compounds in 0.001-5 mg/kg dose range. […] Analgesic activity was assessed by the ability of the compounds to reduce the number of writhes in test group compared to control group, and indicated as percentage using the following formula: AA=(Wc−Wt/Wc)×100%,
where AA—analgesic activity in %;
Wc—average number of writhes in control group;
Wt—average number of writhes in test group
Test compounds were studied in comparison with the reference drug sodium diclofenac in 10 mg/kg dose. ED50 was calculated using Prozorovsky method.

[2] = test system: number of drinking actions despite electric shock; test: Anxiolytic activity, conflict situation model (drinking versus electric shock); details: for Anxiolytic activity assessed using conflict situation method (5 mg/kg): number of drinking actions despite electric shock, 30 min before test; for Anxiolytic properties: 5 mg/kg
Experimental: Anxiolytic activity was assessed in a model of conflict situation based on the conflict of two reflexes (drinking and defensive) when drinking water from a water fountain. Anxiolytic activity was assessed by the number of drinking actions despite electric shock.
(§1) Diazepam drug was used as the reference drug. All test compounds and the reference drug diazepam were administered in a suspension with Tween-80 in 5 mg/kg dose 30 min before the start of experiments.

[3] = test system: general movement activity of animals; test: General movement activity, open field test; details: for General movement activity (5 mg/kg): open field 3 min, sum of rearings, transitions, explored holes, 30 min before test
Experimental: General movement activity was assessed in an open field test. While the animals were in the open field (3 min), the number of rearings (vertical movement activity), transitions between squares (horizontal movement activity) and the number of explored holes (exploratory activity) were registered. The sum of these values is general movement activity.
as §1

[4] = test system: food consumption by rats; test: Action on appetite, Anorexia method (liquid food consumption); details: for Amount of consumed liquid food during 30 min in ml / Food consumption, % of control: dose 0,1 mg/kg intraperitoneally; for Reduction in appetite and food consumption compared to control: Table 6 dose 0,1 mg/kg
Experimental: Studies of pharmacological activity of 3-arylamino-1,3-dihydro-2H-benzo[e][1,4]diazepin-2-ones, namely, their action of appetite, assessment of antihypoxic and antidepressant activity was performed in white male rats with body mass 150-180 g and male mice with body mass 18-22 g. The animals were kept on a standard laboratory diet and natural lighting. Animals of control group were given a water-Tween suspension. Test compounds were administered in a suspension with Tween-80 Reference drugs were the hormone leptin, in 0.0002 mg/kg dose, and a well-known antidepressant amitriptyline (solution for injections in 1 ml vials. Test compounds and the water-Tween suspension were administered in a dose of 0.2 ml/100 g of rat body mass.
The action of the compounds on rat appetite was studied using «norexia» method. For 2 weeks in an experimental equipment the rats were conditioned to consume liquid food. Then a water-Tween suspension of test articles was administered intraperitoneally to conditioned animals one day before the experiment. After 40 minutes the animals were allowed access to liquid food and the amount of consumed food (in ml) of every rat was registered every 30 minutes for 3 hours. The next day after 2 hours of deprivation the rats in control group were administered a water-Tween suspension intraperitoneally, while the test group was administered the test articles. After 40 minutes the animals were allowed access to liquid food and the amount of consumed food (in ml) of every rat was registered every 30 minutes for 3 hours. Then all food consumption values for each rat were summed and compared to control values. The control group has consumed on average 7 ml of liquid food per 30 minutes. The effect was calculated in percentage compared to control.

Structure (SMILES) | Writhing inhibition, % of control in 1 mg/kg dose ([1]; compounds Ib) [%] | Anxiolytic activity assessed using conflict situation method (5 mg/kg) [2] | General movement activity (5 mg/kg) [3] | Amount of consumed liquid food during 30 min in ml [4] | Food consumption, % of control [4] [%] | further results
CCOC1N=C(c2ccccc2)c2cc(Cl)ccc2N(CC(=O)OC)C1=O (stereo not drawn) [Compound 21] |  |  |  |  |  | Writhing inhibition, % of control in 1 mg/kg dose ([1]; compounds Ia): 62%; ED50, analgesic activity in writhing test [1]: 0.29 ± 0.025 mg/kg
CCCOC1N=C(c2ccccc2)c2cc(Cl)ccc2N(CC(=O)OC)C1=O (stereo not drawn) [Compound 22] |  |  |  |  |  | Writhing inhibition, % of control in 1 mg/kg dose ([1]; compounds Ia): 70%; ED50, analgesic activity in writhing test [1]: 0.08 ± 0.02 mg/kg
CCCCOC1N=C(c2ccccc2)c2cc(Cl)ccc2N(CC(=O)OC)C1=O (stereo not drawn) [Compound 23] |  |  |  |  |  | Writhing inhibition, % of control in 1 mg/kg dose ([1]; compounds Ia): 52%
COC(=O)CN1C(=O)C(Nc2ccccc2C(C)=O)N=C(c2ccccc2F)c2cc(Br)ccc21 (stereo not drawn) [Compound 89] | 66 | 3.4 ± 1.2 | 40.0 ± 2.7 |  |  | Sedative properties (words, from general movement activity versus control) ([3]; 5 mg/kg): don't have sedative properties
COC(=O)CN1C(=O)C(Nc2cccc(C(C)=O)c2)N=C(c2ccccc2F)c2cc(Br)ccc21 (stereo not drawn) [Compound 90] | 68 | 8.2 ± 3.4 | 24.5 ± 2.3 |  |  | 
COC(=O)CN1C(=O)C(Nc2ccc(C(C)=O)cc2)N=C(c2ccccc2F)c2cc(Br)ccc21 (stereo not drawn) [Compound 91] | 62 | 4.9 ± 2.2 | 25.2 ± 2.1 |  |  | 
O=C1Nc2ccc(Cl)cc2C(c2ccccc2)=NC1Nc1ccccc1F (stereo not drawn) [Compound 152] |  |  |  | 3,5 ± 1,3 ml | 47 | 
O=C1Nc2ccc(Cl)cc2C(c2ccccc2)=NC1Nc1ccccc1Br (stereo not drawn) [Compound 161] |  |  |  | 5,5 ± 2,4 ml | 74 | 
O=C1Nc2ccc(Cl)cc2C(c2ccccc2)=NC1Nc1cccc(Br)c1 (stereo not drawn) [Compound 162] |  |  |  | 5,1 ± 2,2 ml | 69 | 
O=C1Nc2ccc(Cl)cc2C(c2ccccc2)=NC1Nc1ccc(Br)cc1 (stereo not drawn) [Compound 163] |  |  |  | 6,8 ± 2,7 ml | 92 | 
COC(=O)CN1C(=O)C(Nc2ccccc2[N+](=O)[O-])N=C(c2ccccc2)c2cc(Cl)ccc21 (stereo not drawn) [Compound 173] | 55 | 120.5 ± 10.3 | 15.0 ± 1.3 |  |  | Anxiolytic properties [2]: potent anxiolytic properties
COC(=O)CN1C(=O)C(Nc2cccc([N+](=O)[O-])c2)N=C(c2ccccc2)c2cc(Cl)ccc21 (stereo not drawn) [Compound 174] | 58 | 60.6 ± 7.0 | 18.0 ± 2.4 |  |  | 
COC(=O)CN1C(=O)C(Nc2ccc([N+](=O)[O-])cc2)N=C(c2ccccc2)c2cc(Cl)ccc21 (stereo not drawn) [Compound 175] | 55 | 48.7 ± 3.6 | 20.0 ± 1.0 |  |  | 
O=C1Nc2ccc(OC(F)(F)F)cc2C(c2ccccc2)=NC1Nc1cccc(Cl)c1 (stereo not drawn) [Compound 195] |  |  |  | 5,7 ± 2,2 ml | 77 | 
O=C1Nc2ccc(OC(F)(F)F)cc2C(c2ccccc2)=NC1Nc1ccc(Cl)cc1 (stereo not drawn) [Compound 196] |  |  |  | 6,5 ± 3,2 ml | 88 | 
COC(=O)CN1C(=O)C(Nc2ccccc2[N+](=O)[O-])N=C(c2ccccc2)c2cc(OC(F)(F)F)ccc21 (stereo not drawn) [Compound 227] | 60 | 109.5 ± 8.3 | 13.0 ± 1.3 |  |  | Anxiolytic properties [2]: potent anxiolytic properties

Structure (SMILES) | Writhing inhibition, % of control in 1 mg/kg dose ([1]; compounds Ib) [%] | Anxiolytic activity assessed using conflict situation method (5 mg/kg) [2] | General movement activity (5 mg/kg) [3] | Amount of consumed liquid food during 30 min in ml [4] | Food consumption, % of control [4] [%] | further results
COC(=O)CN1C(=O)C(Nc2cccc([N+](=O)[O-])c2)N=C(c2ccccc2)c2cc(OC(F)(F)F)ccc21 (stereo not drawn) [Compound 228] | 62 | 40.6 ± 3.9 | 17.0 ± 2.4 |  |  | 
COC(=O)CN1C(=O)C(Nc2ccc([N+](=O)[O-])cc2)N=C(c2ccccc2)c2cc(OC(F)(F)F)ccc21 (stereo not drawn) [Compound 229] | 59 | 38.7 ± 2.6 | 19.0 ± 1.0 |  |  | 
O=C1Nc2ccc([N+](=O)[O-])cc2C(c2ccccc2)=NC1Nc1ccccc1Cl (stereo not drawn) [Compound 248] |  |  |  | 3,1 ± 2,4 ml | 41 | Reduction in appetite and food consumption compared to control [4]: 41%
O=C1Nc2ccc([N+](=O)[O-])cc2C(c2ccccc2)=NC1Nc1cccc(Cl)c1 (stereo not drawn) [Compound 249] |  |  |  | 5,1 ± 2,2 ml | 69 | 
COC(=O)CN1C(=O)C(Nc2ccccc2[N+](=O)[O-])N=C(c2ccccc2)c2cc([N+](=O)[O-])ccc21 (stereo not drawn) [Compound 281] | 61 | 115.6 ± 9.3 | 14.0 ± 1.4 |  |  | Anxiolytic properties [2]: potent anxiolytic properties
O=C1Nc2ccc([N+](=O)[O-])cc2C(c2ccccc2Cl)=NC1Nc1ccccc1Br (stereo not drawn) [Compound 320] |  |  |  | 6,5 ± 3,4 ml | 88 | 
O=C1Nc2ccc([N+](=O)[O-])cc2C(c2ccccc2Cl)=NC1Nc1cccc(Br)c1 (stereo not drawn) [Compound 321] |  |  |  | 6,1 ± 3,2 ml | 82 | 
O=C1Nc2ccc([N+](=O)[O-])cc2C(c2ccccc2Cl)=NC1Nc1ccc(Br)cc1 (stereo not drawn) [Compound 322] |  |  |  | 7,8 ± 2,7 ml | 105 | 
CC(=O)c1ccccc1NC1N=C(c2ccccc2F)c2cc([N+](=O)[O-])ccc2NC1=O (stereo not drawn) [Compound 347] |  |  |  | 6,5 ± 2,7 ml | 105 | 
CC(=O)c1cccc(NC2N=C(c3ccccc3F)c3cc([N+](=O)[O-])ccc3NC2=O)c1 (stereo not drawn) [Compound 348] |  |  |  | 21,4 ± 4,9 ml | 284 | 
CC(=O)c1ccc(NC2N=C(c3ccccc3F)c3cc([N+](=O)[O-])ccc3NC2=O)cc1 (stereo not drawn) [Compound 349] |  |  |  | 14 ± 1,8 ml | 189 | 
O=C1Nc2ccc([N+](=O)[O-])cc2C(c2ccccc2F)=NC1Nc1ccccc1Cl (stereo not drawn) [Compound 356] |  |  |  | 2,9 ± 2,1 ml | 39 | Reduction in appetite and food consumption compared to control [4]: 39%
O=C1Nc2ccc([N+](=O)[O-])cc2C(c2ccccc2F)=NC1Nc1ccc(Cl)cc1 (stereo not drawn) [Compound 358] |  |  |  | 6,7 ± 3,2 ml | 90 | Effect on appetite [4]: hyperphagic effect
CN1C(=O)CN=C(c2ccccc2)c2cc(Cl)ccc21 [Diazepam, reference compound] |  | 120.0 ± 4.9 | 32.5 ± 2.8 |  |  | 
COc1ccc2c(c1)c(CC(=O)O)c(C)n2C(=O)c1ccc(Cl)cc1 [indomethacin, reference compound] |  |  |  |  |  | ED50 [1]: 1.5 ± 0.26 mg/kg
O=C(O)Cc1ccccc1Nc1c(Cl)cccc1Cl [sodium diclofenac, reference compound] |  |  |  |  |  | ED50 [1]: 10 ± 1.8 mg/kg
